US20240308992A1 (Biopolar Youtang(Guangdong) Pharmaceutical Co., Ltd., priority 2021, published 2024)
pIC50: −log10 of the molar value. Structures can show the parent of a compound that is named as a salt.

What follows are molecules tested against T1, Drak2 (Homo sapiens, UniProt O94768) (assay: Drak2 activity test, ADP-Glo kinase assay (Promega)). Conditions: inhibition of Drak2 kinase activity, 2 h room temperature, activity range classes, read-out: IC50_Drak2.
T1 sequence (O94768 1-372): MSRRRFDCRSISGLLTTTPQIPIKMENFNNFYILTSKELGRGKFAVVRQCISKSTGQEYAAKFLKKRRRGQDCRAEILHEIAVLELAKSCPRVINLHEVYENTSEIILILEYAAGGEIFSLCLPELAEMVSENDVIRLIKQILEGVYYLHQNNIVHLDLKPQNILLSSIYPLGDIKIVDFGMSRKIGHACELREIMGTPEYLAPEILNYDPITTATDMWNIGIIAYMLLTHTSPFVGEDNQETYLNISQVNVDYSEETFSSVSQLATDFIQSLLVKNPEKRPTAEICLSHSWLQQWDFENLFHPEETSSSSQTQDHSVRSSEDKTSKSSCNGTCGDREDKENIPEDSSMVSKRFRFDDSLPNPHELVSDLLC
Type: biochemical
In the case of `CCCCC(=O)Nc1csc(-c2cncc(-c3ccc(N)c(OC)c3)n2)c1` [Example 196, N-{5-[6-(4-amino-3-methoxyphenyl)pyrazin-2-yl]thiophen-3-yl}pentanamide], the pIC50 was > 8.00.
`CCCCC(=O)Nc1csc(-c2cncc(-c3cccc(O)c3)n2)c1` [Example 197, N-(5-(6-(3-hydroxyphenyl)pyrazin-2-yl)thiophen-3-yl) pentanamide] was tested, and the pIC50 was 7.00 to 7.96.
`CCCCC(=O)Nc1csc(-c2cncc(-c3cccc(C#N)c3)n2)c1` [Example 198, N-{5-[6-(3-cyanophenyl)pyrazin-2-yl]thiophen-3-yl} pentanamide] gave a pIC50 of 6.00 to 7.00.
Molecule `CCCCC(=O)Nc1csc(-c2cncc(-c3ccc(C(=O)N(C)C4CC5(C4)CN(C)C5)c(OC)c3)n2)c1` [Example 199, 2-Methoxy-N-methyl-N-(2-methyl-2-azaspiro[3.3]heptane-6-yl)-4-(6-(4-pentamidothiophen-2-yl)pyrazin-2-yl) benzamide] has a pIC50 of 7.00 to 7.96.
Work on `COc1cc(-c2cncc(-c3cc(OCC[C@H](C)CN)cs3)n2)ccc1C(=O)N(C)C1CCN(C)CC1` [Example 200, 4-[6-(4-{[(3S)-4-amino-3-methylbutyl]oxy}thiophen-2-yl)pyrazin-2-yl]-2-methoxy-N-methyl-N-(1-methylhexahydropyridin-4-yl) benzamide] yielded a pIC50 of 7.00 to 7.96.
For `COc1cc(-c2cncc(-c3cc(NC(=O)C(C)(C)C4CCC4)cs3)n2)ccc1C(=O)N(C)C1CC2(C1)CN(C)C2` [Example 201, 4-(6-{4-[(2-cyclobutyl-2-methylpropionyl)amino]thiophen-2-yl}pyrazin-2-yl)-2-methoxy-N-methyl-N-(2-methyl-2-azaspiro [3.3]hept-6-yl) benzamide], the pIC50 was 5.00 to 6.00.
`COc1cc(-c2cncc(-c3cc(NC(=O)CC4CC(F)(F)C4)cs3)n2)ccc1C(=O)N(C)C1CC2(C1)CN(C)C2` (centres unmarked) [Example 202, 4-[6-(4-{[2-(3,3-difluorocyclobutyl)acetyl]amino}thiophen-2-yl)pyrazin-2-yl]-2-methoxy-N-methyl-N-(2-methyl-2-azaspiro [3.3]hept-6-yl) benzamide] was tested, and the pIC50 was 7.00 to 7.96.
`COc1cc(-c2cncc(-c3cc(NC(=O)C(C)(C)C4CC(F)(F)C4)cs3)n2)ccc1C(=O)N(C)C1CC2(C1)CN(C)C2` (centres unmarked) [Example 203, 4-[6-(4-{[2-(3,3-difluorocyclobutyl)-2-methylpropionyl]amino}thiophen-2-yl)pyrazin-2-yl]-2-methoxy-N-methyl-N-(2-methyl-2-azaspiro [3.3]hept-6-yl) benzamide] showed a pIC50 of 7.00 to 7.96.
In the case of `COc1cc(-c2cncc(-c3cc(NC(=O)CC45CC(C4)C5)cs3)n2)ccc1C(=O)Nc1nnco1` [Example 204, 4-[6-(4-{[2-(bicyclo [1.1.1]penta-1-yl)acetyl]amino}thiophen-2-yl)pyrazin-2-yl]-2-methoxy-N-(1,3,4-oxadiazol-2-yl) benzamide], the pIC50 was 6.00 to 7.00.
In the case of `COc1cc(-c2cncc(-c3cc(NC(=O)CC4CC(O)C4)cs3)n2)ccc1C(=O)N(C)C1CC2(C1)CN(C)C2` (centres unmarked) [Example 205, 4-(6-(4-(2-(3-hydroxycyclobutyl)acetylamino)thiophen-2-yl)pyrazin-2-yl)-2-methoxy-N-methyl-N-(2-methyl-2-azaspiro [3.3]heptane-6-yl) benzamide], the pIC50 was 7.00 to 7.96.
In the case of `COc1cc(-c2cncc(-c3cc(NC(=O)CC4CC(OC)C4)cs3)n2)ccc1C(=O)N(C)C1CC2(C1)CN(C)C2` (centres unmarked) [Example 206, 2-Methoxy-4-(6-(4-(2-(3-methoxycyclobutyl)acetylamino)thiophen-2-yl)pyrazin-2-yl)-N-methyl-N-(2-methyl-2-azaspiro [3.3]heptane-6-yl) benzamide], the pIC50 was 7.00 to 7.96.
For `COc1cc(-c2cncc(-c3cc(NC(=O)CC4CC(OCc5ccccc5)C4)cs3)n2)ccc1C(=O)N(C)C1CC2(C1)CN(C)C2` (centres unmarked) [Example 207, 4-(6-(4-(2-(3-(benzyloxy)cyclobutyl)acetylamino)thiophen-2-yl)pyrazin-2-yl)-2-methoxy-N-methyl-N-(2-methyl-2-azaspiro [3.3]heptane-6-yl) benzamide], the pIC50 was 7.00 to 7.96.
`COc1cc(-c2cncc(-c3cc(NC(=O)CC4CCC4)cs3)n2)ccc1-c1ncc2c(n1)CCN(Cc1ccccc1)C2` [Example 208, N-(5-(6-(4-(6-benzyl-5,6,7,8-tetrahydropyrido [4,3-d]pyrimidin-2-yl)-3-methoxyphenyl)pyrazin-2-yl)thiophen-3-yl)-2-cyclobutyl Acetamide] showed a pIC50 of 6.00 to 7.00.
With `O=C(CC1CCC1)Nc1csc(-c2cncc(-c3ccnc4[nH]ccc34)n2)c1` [Example 209, N-(5-(6-(1H-pyrrolo [2,3-b]pyridin-4-yl)pyrazin-2-yl)thiophen-3-yl)-2-cyclobutylacetamide] the pIC50 was 7.00 to 7.96.
Work on `CC(C)n1ccc2c(-c3cncc(-c4cc(NC(=O)CC5CCC5)cs4)n3)ccnc21` [Example 210, 2-Cyclobutyl-N-(5-{6-[1-(propyl-2-yl)pyrrolo [2,3-b]pyridin-4-yl]pyrazin-2-yl}thiophen-3-yl) acetamide] yielded a pIC50 of 6.00 to 7.00.
In the case of `O=C(CC1CCC1)Nc1csc(-c2cncc(-c3ccnc4c3ccn4Cc3ccccc3)n2)c1` [Example 211, N-{5-[6-(1-benzylpyrrolo [2,3-b]pyridin-4-yl)pyrazin-2-yl]thiophen-3-yl}-2-cyclobutyl Acetamide], the pIC50 was 6.00 to 7.00.
`O=C(CC1CCC1)Nc1csc(-c2cncc(-c3ccc4cnn(C5CC5)c4c3)n2)c1` [Example 212, 2-Cyclobutyl-N-{5-[6-(1-cyclopropylindazol-6-yl)pyrazin-2-yl]thiophen-3-yl}acetamide] was tested, and the pIC50 was 6.00 to 7.00.
In the case of `CC(C)n1ncc2ccc(-c3cncc(-c4cc(NC(=O)CC5CCC5)cs4)n3)cc21` [Example 213, 2-Cyclobutyl-N-(5-{6-[1-(propyl-2-yl)indazol-6-yl]pyrazin-2-yl}thiophen-3-yl) acetamide], the pIC50 was 6.00 to 7.00.
Molecule `CCCCC(=O)Nc1csc(-c2cncc(-c3ccc4c(c3)OCCN4C(=O)C3CCN(C)CC3)n2)c1` [Example 214, N-[5-(6-{4-[(1-methylhexahydropyridin-4-yl)carbonyl]-3,4-dihydro-2H-benzo [2,1-b] [1,4]oxazinan-7-yl}pyrazine-2-y)thiophene-3-yl] pentanamide] has a pIC50 of 7.00 to 7.96.
`O=C(CC1CCC1)Nc1csc(-c2cncc(-c3ccnc4c3ccn4CC(F)(F)F)n2)c1` [Example 215, 2-Cyclobutyl-N-(5-{6-[1-(2,2,2-trifluoroethyl)pyrrolo [2,3-b]pyridin-4-yl]pyrazin-2-yl}thiophen-3-yl) acetamide] gave a pIC50 of 6.00 to 7.00.
In the case of `CCCCC(=O)Nc1csc(-c2cncc(-c3cn(C)nc3C)n2)c1` [Example 216, N-{5-[6-(1,3-dimethylpyrazol-4-yl)pyrazin-2-yl]thiophen-3-yl}pentanamide], the pIC50 was > 8.00.
In the case of `CCCCC(=O)Nc1csc(-c2cncc(-c3cncs3)n2)c1` [Example 217, N-{5-[6-(1,3-thiazole-5-yl)pyrazin-2-yl]thiophen-3-yl} pentanamide], the pIC50 was 7.00 to 7.96.
Work on `CCCCC(=O)Nc1csc(-c2cncc(-c3ccc(CCO)s3)n2)c1` [Example 218, N-(5-{6-[5-(2-hydroxyethyl)thiophen-2-yl]pyrazin 2-yl}thiophen-3-yl) pentanamide] yielded a pIC50 of 7.00 to 7.96.
For `CCCCC(=O)Nc1csc(-c2cncc(-c3cccs3)n2)c1` [Example 219, N-{5-[6-(thiophen-2-yl)pyrazin-2-yl]thiophen-3-yl}pentanamide], the pIC50 was 7.00 to 7.96.
Work on `CCCCC(=O)Nc1csc(-c2cncc(-c3ccco3)n2)c1` [Example 220, N-{5-[6-(furyl-2-yl)pyrazin-2-yl]thiophen-3-yl}pentanamide] yielded a pIC50 of 6.00 to 7.00.
`CCCCC(=O)Nc1csc(-c2cncc(-c3ccc(OC)c(S(C)(=O)=O)c3)n2)c1` [Example 221] gave a pIC50 of 6.00 to 7.00.
In the case of `CCCCC(=O)Nc1csc(-c2cncc(-c3ccc(C(=O)OC)s3)n2)c1` [Example 222, methyl 5-(6-(4-pentamidothiophen-2-yl)pyrazin-2-yl) thiophen-2-carboxylate], the pIC50 was 6.00 to 7.00.
Molecule `COc1cc(-c2cncc(-c3nc(NC(=O)CC4CCC4)cs3)n2)ccc1C(=O)N(C)C1CCN(C)CC1` [Example 223, 4-(6-{4-[(2-cyclobutylacetyl)amino]-1,3-thiazole-2-yl}pyrazin-2-yl)-2-methoxy-N-methyl-N-(1-methylhexahydropyridin-4-yl) benzamide] has a pIC50 of 6.00 to 7.00.
For `Cn1ccc2c(-c3cncc(-c4cc(NC(=O)CC5CCC5)cs4)n3)ccnc21` [Example 224], the pIC50 was 6.00 to 7.00.
Work on `CCCCC(=O)Nc1csc(-c2cncc(-c3ccc(OC)c(OC)c3)n2)c1` [Example A1, N-(5-(6-(3,4-dimethoxyphenyl)pyrazin-2-yl)thiophen-3-yl)pentanamide] yielded a pIC50 of 6.00 to 7.00.
For `COc1ccc(-c2cncc(-c3cc(N)cs3)n2)cc1OC` [Example A2, 5-(6-(3,4-dimethoxyphenyl)pyrazin-2-yl)thiophen-3-amine hydrochloride], the pIC50 was 5.00 to 6.00.
Molecule `COc1ccc(-c2cncc(-c3cc(NC(C)=O)cs3)n2)cc1OC` [Example A3, N-(5-(6-(3,4-dimethoxyphenyl)pyrazin-2-yl)thiophen-3-yl)acetamide] has a pIC50 of 6.00 to 7.00.
`COc1ccc(-c2cncc(-c3cc(NC(=O)C(C)C)cs3)n2)cc1OC` [Example A4, N-(5-(6-(3,4-dimethoxyphenyl)pyrazin-2-yl)thiophen-3-yl)isobutyramide] was tested, and the pIC50 was 6.00 to 7.00.
`COc1ccc(-c2cncc(-c3cc(NC(=O)C(C)(C)C)cs3)n2)cc1OC` [Example A5, N-(5-(6-(3,4-dimethoxyphenyl)pyrazin-2-yl)thiophen-3-yl)pivalamide] showed a pIC50 of 6.00 to 7.00.
`COc1ccc(-c2cncc(-c3cc(NC(=O)C4CC4)cs3)n2)cc1OC` [Example A6, N-(5-(6-(3,4-dimethoxyphenyl)pyrazin-2-yl)thiophen-3-yl)cyclopropanecarboxamide] showed a pIC50 of 6.00 to 7.00.
